Data taken from ChEMBL document CHEMBL1201862, “PubChem BioAssay data set” (2004).
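In this assay, cells in 96-well plates receive the compound at five concentrations for 48 hours. Endpoints are linearly interpolated between the surrounding concentrations. GI50 marks 50% less growth.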 Activity calls are given as the source filed them. No stated cut-off is given here; in the data, active = GI50 up to about 1.1 µM and inactive = higher.

Experiments:
Test in all cases: inhibition of tumour cell growth, NCI panel, 48 h
786-0 = system: 786-0
A498 = system: A498
A549 = system: A549
ACHN = system: ACHN
BT-549 = system: BT-549
CAKI-1 = system: CAKI-1
CCRF-CEM = system: CCRF-CEM
COLO 205 = system: COLO 205
DU-145 = system: DU-145
EKVX = system: EKVX
HCC 2998 = system: HCC 2998
HCT-116 = system: HCT-116
HCT-15 = system: HCT-15
HL-60 = system: HL-60
HOP-62 = system: HOP-62
HOP-92 = system: HOP-92
HT-29 = system: HT-29
Hs-578T = system: Hs-578T
IGROV-1 = system: IGROV-1
K562 = system: K562
KM12 = system: KM12
LOX IMVI = system: LOX IMVI
M14 = system: M14
MCF7 = system: MCF7
MDA-MB-435 = system: MDA-MB-435
MDA-N = system: MDA-N
MOLT-4 = system: MOLT-4
Malme-3M = system: Malme-3M
NCI-H226 = system: NCI-H226
NCI-H23 = system: NCI-H23
NCI-H460 = system: NCI-H460
NCI-H522 = system: NCI-H522
NCI/ADR-RES = system: NCI/ADR-RES
OVCAR-3 = system: OVCAR-3
OVCAR-4 = system: OVCAR-4
OVCAR-5 = system: OVCAR-5
OVCAR-8 = system: OVCAR-8
PC-3 = system: PC-3
RPMI-8226 = system: RPMI-8226
RXF 393 = system: RXF 393
SF-268 = system: SF-268
SF-295 = system: SF-295
SF-539 = system: SF-539
SK-MEL-28 = system: SK-MEL-28
SK-MEL-2 = system: SK-MEL-2
SK-MEL-5 = system: SK-MEL-5
SK-OV-3 = system: SK-OV-3
SN12C = system: SN12C
SNB-19 = system: SNB-19
SNB-75 = system: SNB-75
SR = system: SR
SW-620 = system: SW-620
T47D = system: T47D
TK-10 = system: TK-10
U-251 = system: U-251
UACC-257 = system: UACC-257
UACC-62 = system: UACC-62
UO-31 = system: UO-31
MDA-MB-231 = system: MDA-MB-231

N=C(N)N/N=C/c1c(-c2ccc(Cl)cc2)nc2n1CCS2
GI50 (786-0): 4.31 µM (inactive)
GI50 (A498): 12.7 µM (inactive)
GI50 (A549): 10 µM (inactive)
GI50 (ACHN): 14.1 µM (inactive)
GI50 (BT-549): 14.5 µM (inactive)
GI50 (CAKI-1): 14.8 µM (inactive)
GI50 (CCRF-CEM): 2.43 µM (inactive)
GI50 (COLO 205): 4.38 µM (inactive)
GI50 (DU-145): 12.8 µM (inactive)
GI50 (EKVX): 16.6 µM (inactive)
GI50 (HCC 2998): 3.04 µM (inactive)
GI50 (HCT-116): 4.25 µM (inactive)
GI50 (HCT-15): 14.3 µM
GI50 (HL-60): 31.1 µM (inactive)
GI50 (HOP-62): 12.6 µM (inactive)
GI50 (HOP-92): 10.7 µM (inactive)
GI50 (HT-29): 8.87 µM (inactive)
GI50 (Hs-578T): 24.3 µM (inactive)
GI50 (IGROV-1): 13.9 µM (inactive)
GI50 (K562): 2.98 µM (inactive)
GI50 (KM12): 10.9 µM (inactive)
GI50 (LOX IMVI): 4.49 µM (inactive)
GI50 (M14): 2.94 µM (inactive)
GI50 (MCF7): 11.5 µM (inactive)
GI50 (MDA-MB-435): 11.9 µM (inactive)
GI50 (MDA-N): 11 µM (inactive)
GI50 (MOLT-4): 2.68 µM (inactive)
GI50 (Malme-3M): 14.6 µM (inactive)
GI50 (NCI-H226): 20.1 µM (inactive)
GI50 (NCI-H23): > 10 µM (inactive)
GI50 (NCI-H460): 13.1 µM (inactive)
GI50 (NCI-H522): 12.8 µM (inactive)
GI50 (NCI/ADR-RES): 16.4 µM (inactive)
GI50 (OVCAR-3): 8.18 µM (inactive)
GI50 (OVCAR-4): 15.3 µM (inactive)
GI50 (OVCAR-5): 15.1 µM (inactive)
GI50 (OVCAR-8): 15.2 µM (inactive)
GI50 (PC-3): 4.14 µM (inactive)
GI50 (RPMI-8226): 7.53 µM (inactive)
GI50 (RXF 393): 9.29 µM (inactive)
GI50 (SF-268): 11.5 µM (inactive)
GI50 (SF-295): 3.53 µM (inactive)
GI50 (SF-539): 11.7 µM (inactive)
GI50 (SK-MEL-28): 12.7 µM (inactive)
GI50 (SK-MEL-2): 10.8 µM (inactive)
GI50 (SK-MEL-5): 3.32 µM (inactive)
GI50 (SK-OV-3): 13.9 µM (inactive)
GI50 (SN12C): 14.3 µM (inactive)
GI50 (SNB-19): 15.6 µM (inactive)
GI50 (SNB-75): 13.3 µM (inactive)
GI50 (SR): 7.16 µM (inactive)
GI50 (SW-620): 5.89 µM (inactive)
GI50 (T47D): 13.6 µM (inactive)
GI50 (TK-10): 15.7 µM (inactive)
GI50 (U-251): 12.9 µM (inactive)
GI50 (UACC-257): 14.3 µM (inactive)
GI50 (UACC-62): 11.9 µM (inactive)
GI50 (UO-31): 12.7 µM (inactive)

Cc1ccc(Nc2cc(=O)[nH]c(=O)[nH]2)cc1CS
GI50 (786-0): > 100 µM (inactive)
GI50 (A498): > 100 µM (inactive)
GI50 (A549): > 100 µM (inactive)
GI50 (ACHN): 77.4 µM (inactive)
GI50 (BT-549): 58.1 µM (inactive)
GI50 (CAKI-1): > 100 µM (inactive)
GI50 (CCRF-CEM): > 100 µM (inactive)
GI50 (COLO 205): > 100 µM (inactive)
GI50 (EKVX): > 100 µM (inactive)
GI50 (HCC 2998): > 100 µM (inactive)
GI50 (HCT-116): > 100 µM (inactive)
GI50 (HCT-15): > 100 µM
GI50 (HOP-62): > 100 µM (inactive)
GI50 (HOP-92): > 100 µM (inactive)
GI50 (HT-29): > 100 µM (inactive)
GI50 (Hs-578T): > 100 µM (inactive)
GI50 (IGROV-1): > 100 µM (inactive)
GI50 (K562): > 100 µM (inactive)
GI50 (KM12): > 100 µM (inactive)
GI50 (LOX IMVI): > 100 µM (inactive)
GI50 (M14): > 100 µM (inactive)
GI50 (MDA-MB-231): > 100 µM (inactive)
GI50 (MDA-MB-435): > 100 µM (inactive)
GI50 (MDA-N): > 100 µM (inactive)
GI50 (MOLT-4): > 100 µM (inactive)
GI50 (Malme-3M): > 100 µM (inactive)
GI50 (NCI-H226): > 100 µM (inactive)
GI50 (NCI-H23): > 100 µM (inactive)
GI50 (NCI-H460): > 100 µM (inactive)
GI50 (NCI-H522): > 100 µM (inactive)
GI50 (NCI/ADR-RES): > 100 µM (inactive)
GI50 (OVCAR-3): > 100 µM (inactive)
GI50 (OVCAR-4): > 100 µM (inactive)
GI50 (OVCAR-5): > 100 µM (inactive)
GI50 (OVCAR-8): > 100 µM (inactive)
GI50 (PC-3): > 100 µM (inactive)
GI50 (RPMI-8226): > 100 µM (inactive)
GI50 (RXF 393): 89.9 µM (inactive)
GI50 (SF-268): 61.4 µM (inactive)
GI50 (SF-295): > 100 µM (inactive)
GI50 (SF-539): > 100 µM (inactive)
GI50 (SK-MEL-28): > 100 µM (inactive)
GI50 (SK-MEL-2): > 100 µM (inactive)
GI50 (SK-MEL-5): > 100 µM (inactive)
GI50 (SK-OV-3): > 100 µM (inactive)
GI50 (SN12C): > 100 µM (inactive)
GI50 (SNB-19): > 100 µM (inactive)
GI50 (SNB-75): > 100 µM (inactive)
GI50 (SR): > 100 µM (inactive)
GI50 (SW-620): > 100 µM (inactive)
GI50 (T47D): > 100 µM (inactive)
GI50 (TK-10): > 100 µM (inactive)
GI50 (U-251): > 100 µM (inactive)
GI50 (UACC-257): > 100 µM (inactive)
GI50 (UACC-62): > 100 µM (inactive)
GI50 (UO-31): > 100 µM (inactive)
